Source: PubChem BioAssay AID248 (DTP/NCI, 2004)
Several values for one entry are separate records, joined by “and”; a condition that tells them apart may be missing. Identical values can stand only once. Toxic doses and inconclusive results are not listed. No stated cut-off is given here; in the data, active means T/C of 150% or more; inactive means T/C below 125%.

Tested on: L1210 leukemia ip in BDF1 mice, survival T/C
Test: NCI In Vivo Anticancer Drug Screen. Data for tumor model L1210 Leukemia (intraperitoneal) in B6D2F1 (BDF1) mice
Conditions: endpoint: mean survival time, higher = longer survival
Summary of the method: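 Ratio derived from survival: compound-dosed mice over vehicle-dosed mice, all bearing a transplantable tumor.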

[1] = dose: 100.0 mg/kg/injection, schedule: Q01DX009 (ip), vehicle: other
[2] = dose: 200.0 mg/kg/injection, schedule: Q01DX009 (ip), vehicle: other
[3] = dose: 100.0 mg/kg/injection, schedule: Q04DX003 (ip), vehicle: saline with Tween-80
[4] = dose: 200.0 mg/kg/injection, schedule: Q04DX003 (ip), vehicle: saline with Tween-80
[5] = dose: 400.0 mg/kg/injection, schedule: Q04DX003 (ip), vehicle: saline with Tween-80
[6] = dose: 50.0 mg/kg/injection, schedule: Q01DX009 (ip), vehicle: saline with Tween-80
[7] = dose: 100.0 mg/kg/injection, schedule: Q01DX009 (ip), vehicle: saline with Tween-80
[8] = dose: 200.0 mg/kg/injection, schedule: Q01DX009 (ip), vehicle: saline with Tween-80
[9] = dose: 100.0 mg/kg/injection, schedule: Q01DX009 (ip), vehicle: Klucel (hydroxypropylcellulose) (HPC)
[10] = dose: 100.0 mg/kg/injection, schedule: Q04DX003 (ip), vehicle: Klucel (hydroxypropylcellulose) (HPC)
[11] = dose: 200.0 mg/kg/injection, schedule: Q01DX009 (ip), vehicle: Klucel (hydroxypropylcellulose) (HPC)
[12] = dose: 200.0 mg/kg/injection, schedule: Q04DX003 (ip), vehicle: Klucel (hydroxypropylcellulose) (HPC)
[13] = dose: 400.0 mg/kg/injection, schedule: Q01DX009 (ip), vehicle: Klucel (hydroxypropylcellulose) (HPC)
[14] = dose: 400.0 mg/kg/injection, schedule: Q04DX003 (ip), vehicle: Klucel (hydroxypropylcellulose) (HPC)
[15] = dose: 100.0 mg/kg/injection, schedule: Q01DX001 (ip), vehicle: saline
[16] = dose: 200.0 mg/kg/injection, schedule: Q01DX001 (ip), vehicle: saline
[17] = dose: 400.0 mg/kg/injection, schedule: Q01DX001 (ip), vehicle: saline
[18] = dose: 100.0 mg/kg/injection, schedule: Q01DX001 (ip), vehicle: saline with Tween-80
[19] = dose: 200.0 mg/kg/injection, schedule: Q01DX001 (ip), vehicle: saline with Tween-80
[20] = dose: 400.0 mg/kg/injection, schedule: Q01DX001 (ip), vehicle: saline with Tween-80
[21] = dose: 100.0 mg/kg/injection, schedule: Q01DX001 (ip), vehicle: carboxymethylcellulose (CMC)
[22] = dose: 200.0 mg/kg/injection, schedule: Q01DX001 (ip), vehicle: carboxymethylcellulose (CMC)

Measured: T/C

CS(=N)(=O)c1ccccc1 (stereo not given)
inactive: [1] 99 % of control | dose: 100.0 mg/kg/injection, schedule: Q04DX003 (ip), vehicle: saline 97 % of control | [2] 95 % of control | dose: 200.0 mg/kg/injection, schedule: Q04DX003 (ip), vehicle: saline 100 % of control | dose: 400.0 mg/kg/injection, schedule: Q01DX009 (ip), vehicle: other 97 % of control | dose: 400.0 mg/kg/injection, schedule: Q04DX003 (ip), vehicle: saline 97 % of control

CCN(CC)CCOc1ccc(/C(=C(\Cl)c2ccccc2)c2ccccc2)cc1
inactive: dose: 6.25 mg/kg/injection, schedule: Q04DX002 (ip), vehicle: saline 118 % of control | dose: 12.5 mg/kg/injection, schedule: Q04DX002 (ip), vehicle: saline 118 % of control | dose: 25.0 mg/kg/injection, schedule: Q04DX002 (ip), vehicle: saline 124 % of control | dose: 50.0 mg/kg/injection, schedule: Q04DX002 (ip), vehicle: saline 121 % of control and 124 % of control | dose: 100.0 mg/kg/injection, schedule: Q04DX002 (ip), vehicle: saline 96 % of control

Nc1nc(N)c2nc(CNc3cccc4ccccc34)cnc2n1
inactive: dose: 10.0 mg/kg/injection, schedule: Q01DX009 (ip), vehicle: Klucel (hydroxypropylcellulose) (HPC) 102 % of control | dose: 20.0 mg/kg/injection, schedule: Q01DX009 (ip), vehicle: Klucel (hydroxypropylcellulose) (HPC) 102 % of control | dose: 40.0 mg/kg/injection, schedule: Q01DX009 (ip), vehicle: Klucel (hydroxypropylcellulose) (HPC) 100 % of control

COc1ccc(NC(=O)Oc2ccc(Cl)c(C)c2)cc1
inactive: [3] 93 % of control | [4] 90 % of control | [5] 88 % of control

Nc1ncc(C[P+](c2ccccc2)(c2ccccc2)c2ccccc2)c(N)n1
inactive: dose: 12.5 mg/kg/injection, schedule: Q04DX003 (ip), vehicle: Klucel (hydroxypropylcellulose) (HPC) 102 % of control | dose: 25.0 mg/kg/injection, schedule: Q04DX003 (ip), vehicle: Klucel (hydroxypropylcellulose) (HPC) 112 % of control | dose: 50.0 mg/kg/injection, schedule: Q04DX003 (ip), vehicle: Klucel (hydroxypropylcellulose) (HPC) 105 % of control

CC(C)(C)c1ccc(N)c([N+](=O)[O-])c1
inactive: [6] 102 % of control | [7] 87 % of control | [8] 102 % of control

CC(=O)/C(=C\c1ccc(Cl)c(Cl)c1)C(=O)c1ccccc1
inactive: [1] 97 % of control | dose: 100.0 mg/kg/injection, schedule: Q04DX003 (ip), vehicle: other 95 % of control | [2] 103 % of control | dose: 200.0 mg/kg/injection, schedule: Q04DX003 (ip), vehicle: other 91 % of control | dose: 400.0 mg/kg/injection, schedule: Q04DX003 (ip), vehicle: other 93 % of control

COc1ccc(Cl)cc1NC(=O)NC(Cc1ccccc1)c1ccccc1 (stereo not given)
inactive: [9] 102 % of control | [10] 101 % of control | [11] 100 % of control | [12] 103 % of control | [13] 105 % of control | [14] 103 % of control

COC(OC)c1[nH]c(=S)[nH]c(=O)c1Cc1c(Cl)cccc1Cl
inactive: [3] 101 % of control | [4] 103 % of control | [5] 94 % of control

CCCCS(=O)(=O)N(CCC)CCC
inactive: dose: 100.0 mg/kg/injection, schedule: Q04DX002 (ip), vehicle: saline with Tween-80 93 % of control | dose: 200.0 mg/kg/injection, schedule: Q04DX002 (ip), vehicle: saline with Tween-80 93 % of control | dose: 400.0 mg/kg/injection, schedule: Q04DX002 (ip), vehicle: saline with Tween-80 97 % of control

CCOP(=O)(Cc1c(Cl)c(Cl)c(CP(=O)(OCC)OCC)c(Cl)c1Cl)OCC
inactive: [15] 107 % of control | [16] 98 % of control | [17] 98 % of control

Nc1nc(N)c2nnn(C3CC(O)C(CO)C3)c2n1 (stereo not given)
inactive: [6] 89 % of control | [7] 96 % of control | [8] 92 % of control

O=C(O)c1ccccc1Cc1cccs1
inactive: [18] 98 % of control | [19] 95 % of control | [20] 92 % of control

CCCCCCCCCCCCCC(C1CCCCC1)C1CCCCC1
inactive: [18] 113 % of control | [19] 93 % of control | [20] 95 % of control

CC(C)c1ccc(C(=O)C(O)c2ccc(C(C)C)cc2)cc1 (stereo not given)
inactive: [7] 93 % of control | [8] 97 % of control | dose: 400.0 mg/kg/injection, schedule: Q01DX009 (ip), vehicle: saline with Tween-80 97 % of control

Cc1c(C)c(O)c(SC(CC(=O)O)C(=O)O)c(C)c1O (stereo not given)
inactive: dose: 100.0 mg/kg/injection, schedule: Q04DX002 (ip), vehicle: Klucel (hydroxypropylcellulose) (HPC) 100 % of control | [10] 103 % of control | dose: 200.0 mg/kg/injection, schedule: Q04DX002 (ip), vehicle: Klucel (hydroxypropylcellulose) (HPC) 103 % of control | [12] 103 % of control | dose: 400.0 mg/kg/injection, schedule: Q04DX002 (ip), vehicle: Klucel (hydroxypropylcellulose) (HPC) 97 % of control | [14] 90 % of control

Brc1csnn1
inactive: dose: 50.0 mg/kg/injection, schedule: Q01DX001 (ip), vehicle: carboxymethylcellulose (CMC) 98 % of control | [21] 110 % of control | [22] 95 % of control

CSc1nc(N)c(N=Nc2ccc(S(=O)(=O)Nc3nnc(C)s3)cc2)c(=O)[nH]1
inactive: [21] 95 % of control | [22] 97 % of control | dose: 400.0 mg/kg/injection, schedule: Q01DX001 (ip), vehicle: carboxymethylcellulose (CMC) 101 % of control

CC(C)(O)C(O)(c1ccccc1)c1ccccc1
inactive: [15] 103 % of control | [16] 97 % of control | [17] 95 % of control

CCCOc1ccc(-c2nc(-c3ccc(N=Cc4ccc(N(CCCOS(C)(=O)=O)CCCOS(C)(=O)=O)cc4)cc3)cs2)cc1
inactive: [3] 91 % of control | [4] 86 % of control | [5] 89 % of control

NC(c1ccccc1)(c1ccccc1)c1ccccc1
inactive: [15] 101 % of control | [16] 101 % of control | [17] 101 % of control

CN(C)C(=S)c1ccc(Cl)cc1
inactive: dose: 12.5 mg/kg/injection, schedule: Q01DX009 (ip), vehicle: Klucel (hydroxypropylcellulose) (HPC) 98 % of control | dose: 25.0 mg/kg/injection, schedule: Q01DX009 (ip), vehicle: Klucel (hydroxypropylcellulose) (HPC) 98 % of control

O=S(=O)(Nc1cc(S(=O)(=O)c2ccccc2)c(NS(=O)(=O)c2ccccc2)c(Cl)c1Cl)c1ccccc1
inactive: dose: 75.0 mg/kg/injection, schedule: Q04DX003 (ip), vehicle: Klucel (hydroxypropylcellulose) (HPC) 103 % of control | dose: 150.0 mg/kg/injection, schedule: Q04DX003 (ip), vehicle: Klucel (hydroxypropylcellulose) (HPC) 92 % of control | dose: 300.0 mg/kg/injection, schedule: Q04DX003 (ip), vehicle: Klucel (hydroxypropylcellulose) (HPC) 95 % of control

CCO/C=C1\SC(=S)N(CCc2ccc(OC)c(OC)c2)C1=O
inactive: [9] 94 % of control | [10] 102 % of control | [11] 93 % of control | [12] 102 % of control | [13] 103 % of control | [14] 102 % of control

CCC[CH2][Sn]1([CH2]CCC)[O]C(=O)C2C(C(=O)[O]1)C1(Cl)C(Cl)=C(Cl)C2(Cl)C1(Cl)Cl (stereo not given)
inactive: dose: 44.0 mg/kg/injection, schedule: Q01DX001 (ip), vehicle: saline 98 % of control | dose: 45.0 mg/kg/injection, schedule: Q01DX001 (ip), vehicle: saline 97 % of control | dose: 67.0 mg/kg/injection, schedule: Q01DX001 (ip), vehicle: saline 95 % of control and 101 % of control | [15] 98 % of control and 103 % of control | dose: 150.0 mg/kg/injection, schedule: Q01DX001 (ip), vehicle: saline 123 % of control

CC(=O)c1ccc(N2CCNCC2)cc1
inactive: dose: 10.0 mg/kg/injection, schedule: Q01DX001 (ip), vehicle: carboxymethylcellulose (CMC) 115 % of control | dose: 20.0 mg/kg/injection, schedule: Q01DX001 (ip), vehicle: carboxymethylcellulose (CMC) 107 % of control | dose: 40.0 mg/kg/injection, schedule: Q01DX001 (ip), vehicle: carboxymethylcellulose (CMC) 109 % of control
